Experimental data from the CheMixHub viscosity set.
Where “and” joins values, the source holds several entries; their conditions need not be identical. Equal entries are not always repeated.

Test: xn = mol fraction of the nth substance listed

CCCCCC + CC(C)O
viscosity [mPa·s], 101 kPa
Details	298.15 K	308.15 K
x2 = 0.0486	0.318	0.26
x2 = 0.1046	0.326	0.268
x2 = 0.1633	0.334	0.276
x2 = 0.272	0.364	0.31
x2 = 0.3138	0.377	0.33
x2 = 0.3636	0.399	0.36
x2 = 0.4036	0.42	0.382
x2 = 0.5026	0.496	0.451
x2 = 0.563	0.557	0.508
x2 = 0.6074	0.613	0.561
x2 = 0.6996	0.763	0.694
x2 = 0.8182	1.06	0.934
x2 = 0.9038	1.4	1.237
x2 = 0.9566	1.723	1.379

CCOC(=O)CC + CO
303.15 K, 101.33 kPa
Details	viscosity [mPa·s]
x1 = 0.1102	0.524
x1 = 0.1551	0.525
x1 = 0.2735	0.526
x1 = 0.3189	0.527
x1 = 0.3721	0.528
x1 = 0.4967	0.527
x1 = 0.5395	0.524
x1 = 0.613	0.521
x1 = 0.6625	0.518
x1 = 0.7231	0.514
x1 = 0.8087	0.508
x1 = 0.9141	0.501

Cc1ccccc1O + CC(=O)O
viscosity [mPa·s], 101 kPa
Details	x2 = 0.167	x2 = 0.3109	x2 = 0.4361	x2 = 0.5461	x2 = 0.6434	x2 = 0.7302	x2 = 0.8081	x2 = 0.8783	x2 = 0.942
298.15 K	5.871	4.718	3.853	3.149	2.615	2.165	1.808	1.529	1.307
308.15 K	4.539	3.776	3.151	2.619	2.204	1.86	1.595	1.328	1.139
318.15 K	3.157	2.82	2.465	2.137	1.812	1.542	1.322	1.135	0.9519

Cc1ccccc1O + C[N+](C)(C)CCO.[Cl-]
298.15 K, 101.33 kPa
Details	viscosity
x1 = 0.7	137.1 mPa·s
x1 = 0.8	73.25 mPa·s and 56.18 mPa·s and 47.22 mPa·s
x1 = 0.9	38.19 mPa·s

Cc1ccccc1O + CC(=O)c1ccccc1
303.15 K, 101 kPa
Details	viscosity [mPa·s]
x2 = 0.11	5.369
x2 = 0.2168	4.793
x2 = 0.3155	4.305
x2 = 0.4164	3.832
x2 = 0.4556	3.653
x2 = 0.5575	3.206
x2 = 0.6919	2.635
x2 = 0.7608	2.358
x2 = 0.9488	1.668

CCCCCOC(C)=O + ClCCCl
303.15 K, 101.3 kPa
Details	viscosity [mPa·s]
x1 = 0.1052	0.7366
x1 = 0.196	0.7444
x1 = 0.303	0.7582
x1 = 0.4004	0.7651
x1 = 0.4924	0.7693
x1 = 0.5994	0.7716
x1 = 0.702	0.7686
x1 = 0.805	0.762
x1 = 0.8946	0.7597

CC(C)CO + CCCCCCC
303.15 K, 101.33 kPa
Details	viscosity [mPa·s]
x2 = 0.1513	1.552
x2 = 0.3016	1.023
x2 = 0.4515	0.724
x2 = 0.6022	0.562
x2 = 0.7374	0.478
x2 = 0.8984	0.421

CCCCCOC(=O)CCC + CC(=O)O
viscosity [mPa·s], 101 kPa
Details	298.15 K	313.15 K
x1 = 0.1013	1.06	0.853
x1 = 0.1499	1.04	0.836
x1 = 0.2007	1.02	0.824
x1 = 0.2515	1.03	0.827
x1 = 0.3014	1.03	0.833
x1 = 0.4	1.04	0.833
x1 = 0.4999	1.05	0.846
x1 = 0.6018	1.07	0.85
x1 = 0.6919	1.08	0.859
x1 = 0.804	1.08	0.86
x1 = 0.8906	1.08	0.861
x1 = 0.9459	1.07	0.859

CN(C)CCO + CCCCn1cc[n+](C)c1.F[P-](F)(F)(F)(F)F
viscosity [mPa·s], 101 kPa
Details	x1 = 0.1221	x1 = 0.2143	x1 = 0.3182	x1 = 0.4405	x1 = 0.5166	x1 = 0.605	x1 = 0.709	x1 = 0.8063	x1 = 0.9128
293.15 K	–	–	87.91	60.57	47.58	34.73	–	–	7.95
298.15 K	–	88.45	66.23	45.68	36.09	27.08	–	–	6.67
303.15 K	–	67.51	50.77	35.67	28.45	–	–	–	5.64
308.15 K	67.28	52.1	39.24	27.9	–	–	–	7.99	4.78
313.15 K	52.9	41.46	31.33	–	–	–	9.84	6.74	4.13
318.15 K	42.39	33.36	25.47	–	–	–	8.35	5.74	3.59
323.15 K	35.09	27.71	–	–	–	9.86	7.12	4.99	3.18

OCCOCCOCCOCCOCCOCCOCCOCCOCCO + O
viscosity [mPa·s], 100 kPa
Details	293.15 K	298.15 K	303.15 K	308.15 K	313.15 K	318.15 K	323.15 K
x2 = 0.093	124.5	93.99	72.59	57.45	46.04	37.51	30.97
x2 = 0.12	121.6	92.08	71.18	56.4	45.22	36.83	30.41
x2 = 0.187	120.7	91.49	70.11	55.25	44.27	36.03	29.76
x2 = 0.256	117.4	88.73	68.34	54.28	43.47	35.36	29.19

CCCC=O + CCO
298.1 K, 101 kPa
Details	viscosity [mPa·s]
x1 = 0.1009	1.261
x1 = 0.1952	1.413
x1 = 0.3034	1.484
x1 = 0.3333	1.463
x1 = 0.3989	1.366
x1 = 0.5109	1.103
x1 = 0.5976	0.896
x1 = 0.7003	0.7
x1 = 0.7924	0.564
x1 = 0.8988	0.468

CC(C)CO + Cc1ccc(C)cc1
308.15 K, 101 kPa
Details	viscosity [mPa·s]
x1 = 0.0452	0.549
x1 = 0.1043	0.562
x1 = 0.1908	0.595
x1 = 0.3019	0.649
x1 = 0.3823	0.697
x1 = 0.4859	0.775
x1 = 0.6097	0.969
x1 = 0.7046	1.218
x1 = 0.8071	1.487
x1 = 0.8948	1.856
x1 = 0.9585	2.247

CCOC(=O)CC + ClC(Cl)C(Cl)Cl
viscosity [mPa·s], 101.3 kPa
Details	308.15 K	318.15 K
x1 = 0.0486	1.333	1.203
x1 = 0.0999	1.261	1.128
x1 = 0.2025	1.127	0.996
x1 = 0.2997	1.013	0.888
x1 = 0.3983	0.922	0.794
x1 = 0.5003	0.817	0.71
x1 = 0.5986	0.714	0.64
x1 = 0.7023	0.617	0.576
x1 = 0.801	0.583	0.523
x1 = 0.9018	0.521	0.476
x1 = 0.951	0.493	0.455
